From patent US8999957B2, “Heterocyclic compounds as ERK inhibitors” (Merck Sharp & Dohme Corp., priority 2010, dated 2015)
“And” between values parts separate entries of the source, which are not always exact repeats. Equal entries are not always repeated.

These molecules were tested against fully phosphorylated, mouse aERK2 enzyme (Mus musculus (Mouse), UniProt P63085) (assay: Active ERK2 (aERK) IMAP-FP assay, condition 2). Settings: aERK assay condition 2, 30 uM ATP; read-out: aERK IC50.
Assay type: biochemical
Procedure, shortened: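 Phosphorylation by fully phosphorylated mouse ERK2 ran 40-45 min, then quenched with IMAP beads (1:1000) in binding buffer; fluorescence polarization read after 30 min binding equilibration.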

Sequence of fully phosphorylated, mouse aERK2 enzyme (P63085 whole entry): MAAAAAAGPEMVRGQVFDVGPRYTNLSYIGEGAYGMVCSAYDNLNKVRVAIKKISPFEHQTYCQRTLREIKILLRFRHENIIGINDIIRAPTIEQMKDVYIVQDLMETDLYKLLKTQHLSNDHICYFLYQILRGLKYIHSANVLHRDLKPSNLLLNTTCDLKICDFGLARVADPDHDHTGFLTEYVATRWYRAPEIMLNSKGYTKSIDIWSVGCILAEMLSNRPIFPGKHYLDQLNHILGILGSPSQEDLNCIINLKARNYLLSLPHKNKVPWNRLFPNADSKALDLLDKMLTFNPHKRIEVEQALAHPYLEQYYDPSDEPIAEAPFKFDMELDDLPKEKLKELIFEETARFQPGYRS

Q: With `COc1cccc(F)c1CN1C[C@H](NC(=O)c2ccc3[nH]nc(-c4ccnc(C)c4)c3c2)CC[C@H]1C(=O)Nc1ccc(C)cc1C` [N-[(3R,6S)-6-[(2,4-dimethylphenyl)carbamoyl]-1-(2-fluoro-6-methoxybenzyl)piperidin-3-yl]-3-(2-methylpyridin-4-yl)-1H-indazole-5-carboxamide] as the molecule, how does the IC50 read?
A: Its IC50 is 54.8 nM.

Q: With `COc1cccc(F)c1CN1C[C@H](NC(=O)c2ccc3[nH]nc(-c4ccnc(C)c4)c3c2)CC[C@H]1C(=O)NOCC1CC1` [N-[(3R,6S)-6-[(cyclopropylmethoxy)carbamoyl]-1-(2-fluoro-6-methoxybenzyl)piperidin-3-yl]-3-(2-methylpyridin-4-yl)-1H-indazole-5-carboxamide] as the molecule, how does the IC50 read?
A: Its IC50 is 0.6 nM.

Same assay, conditions: active ERK2; read-out: aErk2 Ic50

Q: Which IC50 does the source give for `COc1cccc(F)c1CN1C[C@H](NC(=O)c2ccc3[nH]nc(-c4ccnnc4)c3c2)CC[C@H]1C(=O)N(C)C` [N-[(3R,6S)-6-(dimethylcarbamoyl)-1-(2-fluoro-6-methoxybenzyl)piperidin-3-yl]-3-pyridazin-4-yl-1H-indazole-5-carboxamide] here?
A: Its IC50 is 137 nM.

Q: For `COc1cccc(F)c1CN1C[C@H](NC(=O)c2ccc3[nH]nc(-c4ccncc4)c3c2)CC[C@H]1C(=O)N(C)C` [N-[(3R,6S)-6-(dimethylcarbamoyl)-1-(2-fluoro-6-methoxybenzyl)piperidin-3-yl]-3-pyridin-4-yl-1H-indazole-5-carboxamide], which IC50 is on record?
A: Its IC50 is 18.2 nM.

Q: Which IC50 does the source give for `Cc1cc(-c2n[nH]c3ccc(C(=O)N[C@@H]4CC[C@@H](C(=O)N(C)C)N(Cc5ccccc5F)C4)cc23)ccn1` [N-[(3R,6S)-6-(dimethylcarbamoyl)-1-(2-fluorobenzyl)piperidin-3-yl]-3-(2-methylpyridin-4-yl)-1H-indazole-5-carboxamide] here?
A: Its IC50 is 39.4 nM.

Q: Which IC50 does the source give for `Cc1cc(-c2n[nH]c3ccc(C(=O)N[C@@H]4CC[C@@H](C(=O)N(C)C)N(CCc5ccccc5)C4)cc23)ccn1` [N-[(3R,6S)-6-(dimethylcarbamoyl)-1-(2-phenylethyl)piperidin-3-yl]-3-(2-methylpyridin-4-yl)-1H-indazole-5-carboxamide] here?
A: Its IC50 is 131 nM.

Q: How did the IC50 turn out when `Cc1cc(-c2n[nH]c3ccc(C(=O)N[C@@H]4CC[C@@H](C(=O)N(C)C)N(Cc5cccs5)C4)cc23)ccn1` [N-[(3R,6S)-6-(dimethylcarbamoyl)-1-(thiophen-2-ylmethyl)piperidin-3-yl]-3-(2-methylpyridin-4-yl)-1H-indazole-5-carboxamide] was run?
A: Its IC50 is 14.4 nM.

Q: Which IC50 does the source give for `CCCN(CCC)C(=O)[C@@H]1CC[C@@H](NC(=O)c2ccc3[nH]nc(-c4ccnc(C)c4)c3c2)CN1Cc1c(F)cccc1OC` [N-[(3R,6S)-6-(dipropylcarbamoyl)-1-(2-fluoro-6-methoxybenzyl)piperidin-3-yl]-3-(2-methylpyridin-4-yl)-1H-indazole-5-carboxamide] here?
A: The IC50 was 141 nM.

Q: How did the IC50 turn out when `COc1cccc(F)c1CN1C[C@H](NC(=O)c2ccc3[nH]nc(-c4ccnc(C)c4)c3c2)CC[C@H]1C(=O)NOC(C)(C)C` [N-[(3R,6S)-6-(tert-butoxycarbamoyl)-1-(2-fluoro-6-methoxybenzyl)piperidin-3-yl]-3-(2-methylpyridin-4-yl)-1H-indazole-5-carboxamide] was run?
A: Its IC50 is 26.2 nM.

Q: `COc1cccc(F)c1CN1C[C@H](NC(=O)c2ccc3[nH]nc(-c4ccnc(C)c4)c3c2)CC[C@H]1C(=O)NN(C)C` [N-[(3R,6S)-6-[(2,2-dimethylhydrazino)-carbonyl]-1-(2-fluoro-6-methoxybenzyl)-piperidin-3-yl]-3-(2-methylpyridin-4-yl)-1H-indazole-5-carboxamide] was tested. Which IC50 did it give?
A: The IC50 was 12.2 nM.

Q: For `COc1cccc(F)c1CN1C[C@H](NC(=O)c2ccc3[nH]nc(-c4ccnc(C)c4)c3c2)CC[C@H]1C(=O)NCCF` [N-[(3R,6S)-6-[(2-fluoroethyl)carbamoyl]-1-(2-fluoro-6-methoxybenzyl)piperidin-3-yl]-3-(2-methylpyridin-4-yl)-1H-indazole-5-carboxamide], which IC50 is on record?
A: The IC50 was 9 nM.

Q: Which IC50 does the source give for `Cc1cc(-c2n[nH]c3ccc(C(=O)N[C@@H]4CC[C@@H](C(=O)N5CC(F)(F)C5)N(Cc5c(F)cccc5F)C4)cc23)ccn1` [N-[(3R,6S)-6-[(3,3-difluoroazetidin-1-yl)carbonyl]-1-(2,6-difluorobenzyl)piperidin-3-yl]-3-(2-methylpyridin-4-yl)-1H-indazole-5-carboxamide] here?
A: The IC50 was 96.5 nM.

Q: With `COc1cccc(F)c1CN1C[C@H](NC(=O)c2ccc3[nH]nc(-c4ccc5nc(C)sc5c4)c3c2)CC[C@H]1C(=O)N1CC(F)(F)C1` [N-[(3R,6S)-6-[(3,3-difluoroazetidin-1-yl)carbonyl]-1-(2-fluoro-6-methoxybenzyl)-piperidin-3-yl]-3-(2-methyl-1,3-benzothiazol-6-yl)-1H-indazole-5-carboxamide] as the molecule, how does the IC50 read?
A: The IC50 was 47.4 nM.

Q: With `COc1cccc(F)c1CN1C[C@H](NC(=O)c2ccc3[nH]nc(-c4ccnc(C)c4)c3c2)CC[C@H]1C(=O)N1CC(F)(F)C1` [N-[(3R,6S)-6-[(3,3-difluoroazetidin-1-yl)carbonyl]-1-(2-fluoro-6-methoxybenzyl)-piperidin-3-yl]-3-(2-methylpyridin-4-yl)-1H-indazole-5-carboxamide] as the molecule, how does the IC50 read?
A: Its IC50 is 14.8 nM and 10.4 nM.

Q: For `COc1cccc(F)c1CN1C[C@H](NC(=O)c2ccc3[nH]nc(-c4ccnnc4)c3c2)CC[C@H]1C(=O)N1CC(F)(F)C1` [N-[(3R,6S)-6-[(3,3-difluoroazetidin-1-yl)carbonyl]-1-(2-fluoro-6-methoxybenzyl)-piperidin-3-yl]-3-pyridazin-4-yl-1H-indazole-5-carboxamide], which IC50 is on record?
A: Its IC50 is 61.2 nM.

Q: How did the IC50 turn out when `Cc1cc(-c2n[nH]c3ccc(C(=O)N[C@@H]4CC[C@@H](C(=O)N5CC(F)(F)C5)N(Cc5ccccc5F)C4)cc23)ccn1` [N-[(3R,6S)-6-[(3,3-difluoroazetidin-1-yl)carbonyl]-1-(2-fluorobenzyl)piperidin-3-yl]-3-(2-methylpyridin-4-yl)-1H-indazole-5-carboxamide] was run?
A: The IC50 was 56.6 nM.

Q: With `Cc1cc(-c2n[nH]c3ccc(C(=O)N[C@@H]4CC[C@@H](C(=O)N5CC(F)(F)C5)N(CCc5ccccc5)C4)cc23)ccn1` [N-[(3R,6S)-6-[(3,3-difluoroazetidin-1-yl)carbonyl]-1-(2-phenylethyl)piperidin-3-yl]-3-(2-methylpyridin-4-yl)-1H-indazole-5-carboxamide] as the molecule, how does the IC50 read?
A: Its IC50 is 232 nM.

Q: With `Cc1cc(-c2n[nH]c3ccc(C(=O)N[C@@H]4CC[C@@H](C(=O)N5CC(F)(F)C5)N(Cc5cccs5)C4)cc23)ccn1` [N-[(3R,6S)-6-[(3,3-difluoroazetidin-1-yl)carbonyl]-1-(thiophen-2-ylmethyl)-piperidin-3-yl]-3-(2-methylpyridin-4-yl)-1H-indazole-5-carboxamide] as the molecule, how does the IC50 read?
A: Its IC50 is 25.8 nM.

Q: How did the IC50 turn out when `COc1cccc(F)c1CN1C[C@H](NC(=O)c2ccc3[nH]nc(-c4ccnc(C)c4)c3c2)CC[C@H]1C(=O)NCCCCl` [N-[(3R,6S)-6-[(3-chloropropyl)carbamoyl]-1-(2-fluoro-6-methoxybenzyl)piperidin-3-yl]-3-(2-methylpyridin-4-yl)-1H-indazole-5-carboxamide] was run?
A: Its IC50 is 11.8 nM.

Q: With `COc1cccc(F)c1CN1C[C@H](NC(=O)c2ccc3[nH]nc(-c4ccnc(C)c4)c3c2)CC[C@H]1C(=O)N1CCN(C(C)=O)CC1` [N-[(3R,6S)-6-[(4-acetylpiperazin-1-yl)carbonyl]-1-(2-fluoro-6-methoxybenzyl)-piperidin-3-yl]-3-(2-methylpyridin-4-yl)-1H-indazole-5-carboxamide] as the molecule, how does the IC50 read?
A: The IC50 was 19.1 nM.

Q: Which IC50 does the source give for `COc1cccc(F)c1CN1C[C@H](NC(=O)c2ccc3[nH]nc(-c4ccnc(C)c4)c3c2)CC[C@H]1C(=O)N1CCC(Cl)CC1` [N-[(3R,6S)-6-[(4-chloropiperidin-1-yl)carbonyl]-1-(2-fluoro-6-methoxybenzyl)-piperidin-3-yl]-3-(2-methylpyridin-4-yl)-1H-indazole-5-carboxamide] here?
A: The IC50 was 48.3 nM.
